Like-named read-outs stand apart in the source and are kept apart here.
Key:
calf thymus DNA (ct-DNA) [1] = system: calf thymus DNA (ct-DNA); parameters: method as in PMID 33803403; conditions: unmodified mitonafide and pinafide; cited from earlier work
HepG2 cells [2] = system: HepG2 cells; parameters: method as in PMID 31776032; conditions: read-out: IC50, compound concentration required to inhibit cell growth by 50%; cited from earlier work
HepG2 cells [3] = system: HepG2 cells; parameters: method as in PMID 31776032; conditions: cited from earlier work
human topoisomerase IIα = target: T1, human topoisomerase IIα (Homo sapiens, UniProt P11388); experiment: Human topoisomerase IIα relaxation assay; format: biochemical; conditions: supercoiled pBR322, concentration range 0.1–100 µM; read-out: IC50, compound concentration required to inhibit the activity of this enzyme by 50%
T1 construct: purchased Inspiralis (Norwich, UK)
Protocol: Therefore, we subjected these compounds to further detailed analyses of inhibitory potential within the concentration range of 0.1–100 µM (Figure S301, ESI) to calculate IC50 values. IC50 refers to the compound concentration (µM) required to inhibit the activity of the topoisomerase enzyme by 50%.
The Human Topoisomerase II-alpha Relaxation Assay Kit was purchased from Inspiralis (Norwich, UK). The Topo IIα inhibition assay was performed as described by the manufacturer. […] Next, TopoIIα (1 U) was added, and the reaction mixture was incubated at 37 °C for an additional 45 min. The reaction was terminated by addition of the STEB buffer (40 % (w/v) sucrose, Tris-HCl (100 mM, pH 8), EDTA (1 mM), bromophenol blue (0.5 mg/mL)). The products were analyzed by electrophoresis using agarose gel (1%) in TAE buffer at 70 V for 2 h, followed by ethidium bromide staining. […] The percentage of Topo-II alpha activity inhibition was calculated by densitometric quantification (Quantity One software, Bio-Rad). The occurrence of a band representing supercoiled DNA on an agarose gel indicated the inhibition of enzyme activity.

calf thymus DNA (ct-DNA) [4] = experiment: Melting temperature (Tm) measurements of ct-DNA, thermal denaturation; format: binding; conditions: r = [compound]/[ct-DNA] = 0.3; pH 7.0, 20 mM cacodylate buffer; Tm of ct-DNA alone 74 °C
Protocol: The melting temperature (Tm) of DNA is defined as the temperature at which 50% of the DNA is in form of single strands forming randomly coiled structures. DNA melting is measured by the absorbance of UV light (260 nm) by the DNA solution, where the amount of UV light absorbed is proportional to the fraction of non-bonded base pairs. The majority of DNA-binding small molecules known thus far stabilize duplex DNA against heat denaturation. A high, drug-induced increase in the Tm of DNA is generally viewed as an excellent criterion to select DNA ligands and is a common feature of several anticancer drugs such as intercalators (a significant increase in Tm = 3–8 °C is observed for strong intercalation) and alkylators. The reverse situation (destabilization of DNA to facilitate its denaturation) may be an attractive option to identify therapeutic agents acting on the DNA structure.
Our study conducted Tm measurement to estimate the impact of 1,8-naphthalimides bearing the carborane cluster on DNA stabilization (Table 1, Figures S249–S253, ESI).
The measurements were performed by adding aliquots of DMSO stock solution of the tested compounds to the buffer solution (pH 7.0, 20 mM, cacodylate buffer, DMSO content of the final solution = 0.24–0.36%). The Tm curves were collected at r = 0.3 (r = [compound]/[ct-DNA]) to assure the dominant binding mode. Thermal melting curves were determined by following the absorption change at 260 nm as a function of temperature by using a GBC Cintra10 UV–vis spectrometer (Dandenong, Australia) equipped with a GBC Thermocell Peltier Power Supply (Dandenong, Australia) using a 1 cm path length cell. The absorbance of the samples was monitored at 260 nm from 30 to 90 °C (95 °C for compounds 54–61) with a heating rate of 1 °C/min. Tm values are the midpoints or the transition curves determined from the maximum of the first derivative. The ΔTm values were calculated by subtracting the Tm of the free nucleic acid from the Tm of the sample. Every Tm value reported in this study was average at least three measurements. The error in Tm was 0.5 °C.

calf thymus DNA (ct-DNA) [5] = experiment: UV–vis absorption titration with ct-DNA, binding constant Kb; conditions: 10 µM compound, ct-DNA 1.25–15 µM
Description: The interaction of 1,8-naphthalimides bearing carborane clusters with ct-DNA was also studied by UV–vis absorption titration to better understand the mode of interaction and binding strength. For compounds interacting with DNA by intercalation, bathochromic and hypochromic effects are observed in the absorption spectra. The spectral changes observed in the electronic absorption of 6–11, 16–19, 36–43, and 54–61 in the absence and presence of ct-DNA are illustrated in Figures S271–S296 (ESI). Progressive addition of ct-DNA at the concentration of 1.25–15 µM to a fixed amount of modified naphthalic anhydride or naphthalimide (10 µM concentration) decreased absorbance for almost all the tested modified conjugates, except conjugates 14, 15, and 22–27 for which changes in absorbance were not observed. […] Hypochromicity (10–56%) was also observed for all conjugates, with the highest value for compound 40.
To compare the DNA-binding strength of the tested conjugates, we calculated the binding constant Kb, as described in the Materials and Methods section. […] For conjugates 14, 15, and 22–27, the Kb value could not be determined due to the lack of noticeable changes in the UV spectra.
The measurements were performed by adding aliquots of DMSO stock solution of the tested compounds to the buffer solution (pH 7.4, 20 mM, 50 mM NaCl, Tris-HCl buffer, DMSO content of the final solutions = 0.40–0.61%) to the final concentration of 10 µM. The tested compounds were incubated 5 min, with increasing concentrations ranging from 0 to 15 µM of ct-DNA at 37 °C, then the UV–vis absorption spectra, between 310 and 500 nm (310–550 nm for compounds 36–43 and 54–61), were recorded using a GBC Cintra10 UV–vis spectrometer (Dandenong, Australia) equipped with a GBC Thermocell Peltier Power Supply (Dandenong, Australia) using a 1 cm path length cell. The binding constant was calculated according to the following equation [53]: A0/A−A0=εG/εH−G−εG +εG/εH−G−εG ×1/Kb[DNA] where Kb is the binding constant, A0 and A are the absorbance of the free tested compound, and the apparent one, εG and εH−G are their coefficient, respectively, and [DNA] is the concentration of [DNA] in the base pair. The slope to intercept ratio of the plot between A0/A − A0 versus 1/[DNA] yielded the binding constant.

HepG2 cells [6] = experiment: In vitro cytotoxic activity, MTT assay; format: cell-based, human; conditions: 24 h treatment, read-out: IC50, compound concentration required to inhibit cell growth by 50%
Protocol: The obtained 1,8-naphthalimide–carborane conjugates were investigated for their in vitro antitumor activity by examining their cytotoxic effects using the MTT tetrazolium dye assay against the human cancer cell line HepG2 established from hepatocellular carcinoma. IC50 refers to the drug concentration (µM) required to inhibit cell growth by 50%.
The cytotoxic properties of the synthesized compounds were evaluated using the human hepatocellular carcinoma cell line HepG2 established from hepatocellular carcinoma. The HepG2 cell line was purchased from ECACC (Salisbury, UK). Cells were grown in EMEM medium (Corning®) supplemented with 10% heat-inactivated fetal bovine serum (FBS) (Corning®) and antibiotics (Corning®), at 37 °C in a 5% CO2 atmosphere. Upon reaching 80–90% confluency, cells were detached with the trypsin (Corning®) and transferred into 96-well microplates at a density of 12 × 10^3. After overnight incubation at 37 °C in a humidified atmosphere containing 5% CO2, the cells were treated for the next 24 h with compounds. The stock solution of each compound was prepared in DMSO at 10 mM. The cytotoxicity was evaluated by the MTT assay. […] Subsequently, the medium was aspirated and replaced with 3-(4,5-dimethylthiazol-2-yl)-2,5-diphenyltetrazolium bromide (MTT) dye solution (50 µL, 0.5 mg/mL). After 3 h incubation, the resulting MTT formazan crystals were dissolved in DMSO (100 µL). To ensure the complete dissolution of formazan, the plates were shaken on an orbital microplate shaker at 1000 rpm for 15 min (Thermoshaker NeoLab 7–0055, Bionovo, Legnica, Poland). The optical density of each well was then measured on a VICTOR Nivo multimode plate reader at a wavelength of 570 nm. Each experiment consisted of 6 replications of each concentration, and each experiment was repeated three times independently. The results were calculated as a percentage of control group viability. The IC50 values were determined using a non-linear regression from the plot of % viability against log dose of compounds by using GraphPad Prism 6.0 software (GraphPad, San Diego, CA, USA).

T1 sequence (P11388 whole entry): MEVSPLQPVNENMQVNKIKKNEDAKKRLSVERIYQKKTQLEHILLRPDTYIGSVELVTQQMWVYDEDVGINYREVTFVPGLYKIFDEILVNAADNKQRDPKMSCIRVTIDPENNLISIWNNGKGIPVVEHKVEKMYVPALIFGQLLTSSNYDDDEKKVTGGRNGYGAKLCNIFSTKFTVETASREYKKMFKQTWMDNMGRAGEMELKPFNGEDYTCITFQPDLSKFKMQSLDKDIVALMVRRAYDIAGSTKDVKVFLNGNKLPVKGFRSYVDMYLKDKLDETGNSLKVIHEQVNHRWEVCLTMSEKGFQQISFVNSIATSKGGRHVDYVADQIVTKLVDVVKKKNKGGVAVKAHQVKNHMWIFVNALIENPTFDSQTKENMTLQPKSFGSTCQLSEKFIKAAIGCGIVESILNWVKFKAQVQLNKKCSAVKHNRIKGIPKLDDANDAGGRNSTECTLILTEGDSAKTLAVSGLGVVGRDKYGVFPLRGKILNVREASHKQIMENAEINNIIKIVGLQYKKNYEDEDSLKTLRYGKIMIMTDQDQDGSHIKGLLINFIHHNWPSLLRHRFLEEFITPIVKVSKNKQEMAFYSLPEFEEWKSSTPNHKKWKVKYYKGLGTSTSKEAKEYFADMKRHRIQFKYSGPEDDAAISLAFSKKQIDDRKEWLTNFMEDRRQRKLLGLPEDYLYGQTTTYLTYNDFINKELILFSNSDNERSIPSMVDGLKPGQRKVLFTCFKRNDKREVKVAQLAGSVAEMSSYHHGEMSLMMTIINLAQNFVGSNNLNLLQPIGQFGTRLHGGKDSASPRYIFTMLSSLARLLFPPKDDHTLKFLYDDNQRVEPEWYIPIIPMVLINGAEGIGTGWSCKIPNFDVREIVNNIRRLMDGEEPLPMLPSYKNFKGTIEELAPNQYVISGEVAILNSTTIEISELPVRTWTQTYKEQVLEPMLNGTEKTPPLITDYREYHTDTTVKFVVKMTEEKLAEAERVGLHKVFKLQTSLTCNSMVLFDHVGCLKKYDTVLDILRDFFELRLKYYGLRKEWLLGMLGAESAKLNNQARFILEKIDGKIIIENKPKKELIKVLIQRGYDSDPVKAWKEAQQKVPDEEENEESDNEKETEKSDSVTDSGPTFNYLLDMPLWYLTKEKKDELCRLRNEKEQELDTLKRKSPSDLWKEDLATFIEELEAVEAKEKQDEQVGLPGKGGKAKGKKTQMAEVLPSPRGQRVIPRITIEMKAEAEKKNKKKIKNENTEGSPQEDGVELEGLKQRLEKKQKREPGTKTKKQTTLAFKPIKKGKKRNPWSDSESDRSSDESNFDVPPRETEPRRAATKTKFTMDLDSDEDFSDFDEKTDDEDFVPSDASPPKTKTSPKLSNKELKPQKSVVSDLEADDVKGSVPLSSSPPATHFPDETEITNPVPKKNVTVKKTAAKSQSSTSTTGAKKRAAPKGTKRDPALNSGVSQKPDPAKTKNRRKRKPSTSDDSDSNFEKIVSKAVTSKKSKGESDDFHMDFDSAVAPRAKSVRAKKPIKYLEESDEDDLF

Compound: O=C1c2cccc3cc([N+](=O)[O-])cc(c23)C(=O)N1CCN1CCCC1 [Pinafide, pinafide]
- ΔTm ct-DNA (calf thymus DNA (ct-DNA) [1]): 6.50 °C
- IC50 (HepG2 cells [2]): 1.23 µM

Compound: CN(C)CCN1C(=O)c2cccc3cc([N+](=O)[O-])cc(c23)C1=O [Mitonafide, mitonafide]
- 8-oxo-dG level in cellular DNA (HepG2 cells [3]): Mitonafide—28.24 ± 0.18 per 10^6 dG [8].
- ΔTm ct-DNA (calf thymus DNA (ct-DNA) [1]): 5.17 °C
- IC50 (HepG2 cells [2]): < 1 µM
- IC50 (human topoisomerase IIα): 5.13 µM

Compound: N-[2-(N-Pyrrolidinyl)ethyl]-4-{1-[3-(1,7-dicarba-closo-dodecaborane-1-yl)propyl]-1H-1,2,3-triazol-4-yl}methoxy-1,8-naphthalimide [Compound 19]
- ΔTm ct-DNA (calf thymus DNA (ct-DNA) [4]): 0.67 °C
- bathochromic shift (calf thymus DNA (ct-DNA) [5]): 1–2 nm
- IC50 (HepG2 cells [6]): 15 ± 0.57 µM

Compound: N-[2-(N-Pyrrolidinyl)ethyl]-4-{1-[3-(1,7-dicarba-closo-dodecaborane-1-yl)propyl]-1H-1,2,3-triazol-4-yl}-1,8-naphthalimide [Compound 11]
- ΔTm ct-DNA (calf thymus DNA (ct-DNA) [4]): 0.33 °C
- bathochromic shift (calf thymus DNA (ct-DNA) [5]): 1–2 nm
- IC50 (HepG2 cells [6]): 14.6 ± 0.43 µM

Compound: N-[2-(N-Pyrrolidinyl)ethyl]-4-{1-[3-(1,2-dicarba-closo-dodecaborane-1-yl)propyl]-1H-1,2,3-triazol-4-yl}methoxy-1,8-naphthalimide [Compound 17]
- ΔTm ct-DNA (calf thymus DNA (ct-DNA) [4]): 0.67 °C
- bathochromic shift (calf thymus DNA (ct-DNA) [5]): 1–2 nm
- IC50 (HepG2 cells [6]): 36.9 ± 3.72 µM

Source: publication PMC9101373, “Design of DNA Intercalators Based on 4-Carboranyl-1,8-Naphthalimides: Investigation of Their DNA-Binding Ability and Anticancer Activity” (International Journal of Molecular Sciences, 2022)
